Experimental findings from patent publication USRE42890E1, “Furazanobenzimidazoles” (Basilea Pharmaceutica AG, priority 2003, dated 2011) are described below.

For one test, the system named is Jurkat. Nature of the test: MTS proliferation assay, Jurkat. The following applies: Homo sapiens, 72 h incubation, read-out: MTS proliferation assay IC 50 Jurkat. The test is classed as cell-based, human. The procedure, abridged:
(§1)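 Absorbance at 492 nm after 3 h with MTS reagent gave proliferation. This followed 72 h compound exposure (final 0.3, 1, 3, 10 μM) at 37 °C and 7.5% CO2. Cells had been plated 24 h earlier in complete RPMI-1640 with 5% or 10% FCS.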

The test system of the next test is Jily. Briefly: MTS proliferation assay, Jily. The test is classed as cell-based. The following applies: 72 h incubation, read-out: MTS proliferation assay IC 50 Jily. The procedure, abridged:
(§2)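 Antiproliferative read-out by MTS (3 h, A492) after 72 h compound exposure at final 0.3–10 μM (four concentrations). Cells were plated 24 h earlier in RPMI-1640 containing 5% or 10% FCS, cultured at 37 °C with 7.5% CO2.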

The subject of another test is HT1080. Briefly: MTS proliferation assay, HT1080. The class given is cell-based, human. The conditions noted are these: Homo sapiens, HT-1080; HT1080, 72 h incubation; read-out: MTS proliferation assay IC 50 HT1080. The procedure, abridged:
as §1

The next test relates to HeLa. Nature of the test: MTS proliferation assay, HeLa. The following applies: Homo sapiens, 72 h incubation, read-out: MTS proliferation assay IC 50 HeLa. The class given is cell-based, human. The procedure, abridged:
as §1

The test system of a further test is MRC5. Nature of the test: MTS proliferation assay, MRC5. The following applies: Homo sapiens; MRC5, 72 h incubation; read-out: MTS proliferation assay IC 50 MRC5. The test is classed as cell-based. In outline:
as §2
A general note: Tetrazolium dyes change colour on reduction, which living cells bring about.

Test [1] concerns adherent cells or suspension cells. Briefly: Hoechst 33342 nuclear staining (fraction of apoptotic nuclei). The class given is cell-based. Also on record: key: 0 relating to no activity; 1 relating to weak activity comprising less than 70% of the cells; score 2 relating to strong activity comprising more than 70% of the cells.

As to `CN(C)c1nonc1-c1nc2ccccc2n1CC(=O)c1ccc(Cl)cc1` [Example 4, Dimethyl-{4-[1-(4-chlorophenacyl)-1H-benzimidazol-2-yl]-furazan-3-yl}-amine], the IC50 with Jurkat is 10 to 100 nM; in the test with Jily, 100 to 1000 nM; with HT1080 it was 100 to 1000 nM; in the test with HeLa it was 100 to 1000 nM; in the test on MRC5, 100 to 1000 nM. In addition, the “Hoechst 33342 nuclear staining score” value is recorded as 0 in test [1] (H460, conc 0.01 μm); 0 in test [1] (H460, conc 0.1 μm); 1 (1 relating to weak activity comprising less than 70% of the cells) in test [1] (H460, conc 1 μm); 0 in test [1] (HeLa, conc 0.01 μm); 0 in test [1] (HeLa, conc 0.1 μm); 2 (score 2 relating to strong activity comprising more than 70% of the cells) in test [1] (HeLa, conc 1 μm). The “Hoechst 33342 nuclear staining score” value in test [1] (Jily, conc 0.01 μm) was 0; in test [1] (Jily, conc 0.1 μm), 0; in test [1] (Jily, conc 1 μm) it was 2 (score 2 relating to strong activity comprising more than 70% of the cells); in test [1] (Jurkat, conc 0.01 μm) it was 0; in test [1] (Jurkat, conc 0.1 μm) it was 0; in test [1] (Jurkat, conc 1 μm), 2 (score 2 relating to strong activity comprising more than 70% of the cells). Further, the “Hoechst 33342 nuclear staining score” value in test [1] (MRC5, conc 0.01 μm) is recorded as 0; in test [1] (MRC5, conc 0.1 μm), 0; in test [1] (MRC5, conc 1 μm), 2 (score 2 relating to strong activity comprising more than 70% of the cells); in test [1] (PBLs, conc 0.01 μm) it was 0; in test [1] (PBLs, conc 0.1 μm), 0; in test [1] (PBLs, conc 1 μm) it was 0.
As to `N#CCCNc1nonc1-c1nc2ccccc2n1CC(=O)c1ccc(Cl)cc1` [Example 6, 4-[1-(4-Chlorophenacyl)-1H-benzimidazol-2-yl]-furazan-3-yl-N-(2-cyanoethyl)-amine], the IC50 with Jurkat is below 10 nM; with Jily, 10 to 100 nM; in the test on HT1080 it was 10 to 100 nM; with HeLa, 10 to 100 nM; in the test with MRC5, 100 to 1000 nM. Moreover, the “Hoechst 33342 nuclear staining score” value in test [1] (H460, conc 0.01 μm) is 0; in test [1] (H460, conc 0.1 μm), 2 (score 2 relating to strong activity comprising more than 70% of the cells); in test [1] (H460, conc 1 μm), 2 (score 2 relating to strong activity comprising more than 70% of the cells); in test [1] (HeLa, conc 0.01 μm) it was 0; in test [1] (HeLa, conc 0.1 μm) it was 2 (score 2 relating to strong activity comprising more than 70% of the cells); in test [1] (HeLa, conc 1 μm) it was 2 (score 2 relating to strong activity comprising more than 70% of the cells). In addition, the “Hoechst 33342 nuclear staining score” value in test [1] (Jily, conc 0.01 μm) is on record as 2 (score 2 relating to strong activity comprising more than 70% of the cells); in test [1] (Jily, conc 0.1 μm), 2 (score 2 relating to strong activity comprising more than 70% of the cells); in test [1] (Jily, conc 1 μm), 2 (score 2 relating to strong activity comprising more than 70% of the cells); in test [1] (Jurkat, conc 0.01 μm), 2 (score 2 relating to strong activity comprising more than 70% of the cells); in test [1] (Jurkat, conc 0.1 μm) it was 2 (score 2 relating to strong activity comprising more than 70% of the cells); in test [1] (Jurkat, conc 1 μm), 2 (score 2 relating to strong activity comprising more than 70% of the cells). Also, the “Hoechst 33342 nuclear staining score” value in test [1] (MRC5, conc 0.01 μm) was 2 (score 2 relating to strong activity comprising more than 70% of the cells); in test [1] (MRC5, conc 0.1 μm), 2 (score 2 relating to strong activity comprising more than 70% of the cells); in test [1] (MRC5, conc 1 μm), 2 (score 2 relating to strong activity comprising more than 70% of the cells); in test [1] (PBLs, conc 0.01 μm), 0; in test [1] (PBLs, conc 0.1 μm), 0; in test [1] (PBLs, conc 1 μm), 0.
As for `Nc1nonc1-c1nc2ccccc2n1COc1ccccc1` [Example 7, 4-(1-Phenoxymethyl-1H-benzimidazol-2-yl)-furazan-3-ylamine], the IC50 in the test on Jurkat, in the test with Jily, in the test on HT1080, with HeLa and with MRC5 was 100 to 1000 nM each time. For the same compound, the “Hoechst 33342 nuclear staining score” value in test [1] (H460, conc 0.01 μm) is 0; in test [1] (H460, conc 0.1 μm), 0; in test [1] (H460, conc 1 μm), 2 (score 2 relating to strong activity comprising more than 70% of the cells); in test [1] (HeLa, conc 0.01 μm), 0; in test [1] (HeLa, conc 0.1 μm) it was 0; in test [1] (HeLa, conc 1 μm), 2 (score 2 relating to strong activity comprising more than 70% of the cells). Also, the “Hoechst 33342 nuclear staining score” value is recorded as 0 in test [1] (Jily, conc 0.01 μm); 0 in test [1] (Jily, conc 0.1 μm); 2 (score 2 relating to strong activity comprising more than 70% of the cells) in test [1] (Jily, conc 1 μm); 0 in test [1] (Jurkat, conc 0.01 μm); 0 in test [1] (Jurkat, conc 0.1 μm); 2 (score 2 relating to strong activity comprising more than 70% of the cells) in test [1] (Jurkat, conc 1 μm). For the same compound, the “Hoechst 33342 nuclear staining score” value is reported as 0 in test [1] (MRC5, conc 0.01 μm); 0 in test [1] (MRC5, conc 0.1 μm); 0 in test [1] (MRC5, conc 1 μm); 0 in test [1] (PBLs, conc 0.01 μm); 0 in test [1] (PBLs, conc 0.1 μm); 0 in test [1] (PBLs, conc 1 μm).
As to `Nc1nonc1-c1nc2ccccc2n1COc1ccc(F)cc1` [Example 8, 4-[1-(4-Fluorophenoxymethyl)-1H-benzimidazol-2-yl]-furazan-3-ylamine], the IC50 in the test on Jurkat, in the test with Jily, with HT1080, with HeLa and in the test with MRC5 was 100 to 1000 nM in each case. Besides, the “Hoechst 33342 nuclear staining score” value in test [1] (H460, conc 0.01 μm) is listed as 0; in test [1] (H460, conc 0.1 μm), 0; in test [1] (H460, conc 1 μm), 0; in test [1] (HeLa, conc 0.01 μm), 0; in test [1] (HeLa, conc 0.1 μm) it was 0; in test [1] (HeLa, conc 1 μm), 1 (1 relating to weak activity comprising less than 70% of the cells). In addition, the “Hoechst 33342 nuclear staining score” value was 0 in test [1] (Jily, conc 0.01 μm); 0 in test [1] (Jily, conc 0.1 μm); 0 in test [1] (Jily, conc 1 μm); 0 in test [1] (Jurkat, conc 0.01 μm); 0 in test [1] (Jurkat, conc 0.1 μm); 1 (1 relating to weak activity comprising less than 70% of the cells) in test [1] (Jurkat, conc 1 μm). Further, the “Hoechst 33342 nuclear staining score” value in test [1] (MRC5, conc 0.01 μm) worked out at 0; in test [1] (MRC5, conc 0.1 μm), 0; in test [1] (MRC5, conc 1 μm) it was 0; in test [1] (PBLs, conc 0.01 μm) it was 0; in test [1] (PBLs, conc 0.1 μm), 0; in test [1] (PBLs, conc 1 μm), 0.
Take `COC(=O)CCNc1nonc1-c1nc2ccccc2n1CC(=O)c1ccc(Cl)cc1` [Example 9, 4-[1-(4-Chlorophenacyl)-1H-benzimidazol-2-yl]-furazan-3-yl-N-(2-methoxycarbonylethyl)-amine]: the IC50 in the test with Jurkat, in the test on Jily, with HT1080, in the test with HeLa and in the test on MRC5 was 100 to 1000 nM each time. Moreover, the “Hoechst 33342 nuclear staining score” value is recorded as 0 in test [1] (H460, conc 0.01 μm); 0 in test [1] (H460, conc 0.1 μm); 0 in test [1] (H460, conc 1 μm); 0 in test [1] (HeLa, conc 0.01 μm); 0 in test [1] (HeLa, conc 0.1 μm); 2 (score 2 relating to strong activity comprising more than 70% of the cells) in test [1] (HeLa, conc 1 μm). The “Hoechst 33342 nuclear staining score” value was 0 in test [1] (Jily, conc 0.01 μm); 0 in test [1] (Jily, conc 0.1 μm); 2 (score 2 relating to strong activity comprising more than 70% of the cells) in test [1] (Jily, conc 1 μm); 0 in test [1] (Jurkat, conc 0.01 μm); 0 in test [1] (Jurkat, conc 0.1 μm); 2 (score 2 relating to strong activity comprising more than 70% of the cells) in test [1] (Jurkat, conc 1 μm). Moreover, the “Hoechst 33342 nuclear staining score” value in test [1] (MRC5, conc 0.01 μm) is 0; in test [1] (MRC5, conc 0.1 μm), 0; in test [1] (MRC5, conc 1 μm), 2 (score 2 relating to strong activity comprising more than 70% of the cells); in test [1] (PBLs, conc 0.01 μm), 0; in test [1] (PBLs, conc 0.1 μm), 0; in test [1] (PBLs, conc 1 μm) it was 2 (score 2 relating to strong activity comprising more than 70% of the cells).
